Assay results reported in PubChem BioAssay (NCI).
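All cell lines were grown in 96-well plates and treated with compound for 48 hours. TGI denotes the concentration required for complete inhibition of growth.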

Tests used:
Experiment in all cases: DTP human tumour cell line panel, 48 h
[1] = test system: 786-0 renal
[2] = test system: A498 renal
[3] = test system: A549 NSCLC
[4] = test system: ACHN renal
[5] = test system: CAKI-1 renal
[6] = test system: CCRF-CEM leukemia
[7] = test system: COLO 205 colon
[8] = test system: DLD-1 colon
[9] = test system: DMS 114 small cell lung
[10] = test system: DMS 273 small cell lung
[11] = test system: EKVX NSCLC
[12] = test system: HCC-2998 colon
[13] = test system: HCT-116 colon
[14] = test system: HCT-15 colon
[15] = test system: HL-60(TB) leukemia
[16] = test system: HOP-18 NSCLC
[17] = test system: HOP-62 NSCLC
[18] = test system: HT29 colon
[19] = test system: IGROV1 ovarian
[20] = test system: K-562 leukemia
[21] = test system: KM12 colon
[22] = test system: KM20L2 colon
[23] = test system: LOX IMVI melanoma
[24] = test system: LXFL 529 NSCLC
[25] = test system: M14 melanoma
[26] = test system: M19-MEL melanoma
[27] = test system: MALME-3M melanoma
[28] = test system: MOLT-4 leukemia
[29] = test system: NCI-H226 lung
[30] = test system: NCI-H23 lung
[31] = test system: NCI-H460 lung
[32] = test system: NCI-H522 lung
[33] = test system: OVCAR-3 ovarian
[34] = test system: OVCAR-4 ovarian
[35] = test system: OVCAR-5 ovarian
[36] = test system: OVCAR-8 ovarian
[37] = test system: RPMI-8226 leukemia
[38] = test system: RXF 393 renal
[39] = test system: SF-268 CNS
[40] = test system: SF-295 CNS
[41] = test system: SF-539 CNS
[42] = test system: SK-MEL-2 melanoma
[43] = test system: SK-MEL-28 melanoma
[44] = test system: SK-MEL-5 melanoma
[45] = test system: SK-OV-3 ovarian
[46] = test system: SN12C renal
[47] = test system: SNB-19 CNS
[48] = test system: SNB-75 CNS
[49] = test system: SNB-78 CNS
[50] = test system: SR leukemia
[51] = test system: SW-620 colon
[52] = test system: TK-10 renal
[53] = test system: U251 CNS
[54] = test system: UACC-257 melanoma
[55] = test system: UACC-62 melanoma
[56] = test system: UO-31 renal
[57] = test system: XF 498 CNS
[58] = test system: BT-549 breast
[59] = test system: DU-145 prostate
[60] = test system: HOP-92 NSCLC
[61] = test system: MCF7 breast
[62] = test system: MDA-MB-231 breast
[63] = test system: MDA-MB-435
[64] = test system: MDA-N
[65] = test system: NCI/ADR-RES ovarian
[66] = test system: PC-3 prostate
[67] = test system: T-47D breast

`COC(=O)C(Cc1nc2ccc(Cl)cc2[nH]c1=O)/C(=N/O)C(=O)Nc1cccc(Cl)c1C` (stereo not drawn) was tested, and the TGI [1] was over 100 µM, the TGI [2] was over 100 µM and the TGI [3] was over 100 µM. For the same compound, the TGI [4] was over 100 µM, the TGI [5] was over 100 µM and the TGI [6] was over 100 µM. For the same compound, the TGI [7] was over 100 µM, the TGI [8] was over 100 µM and the TGI [9] was over 100 µM. The TGI [10] was over 100 µM, the TGI [11] was over 100 µM and the TGI [12] was over 100 µM. For the same compound, the TGI [13] was over 100 µM, the TGI [14] was over 100 µM and the TGI [15] was over 100 µM. The TGI [16] was over 100 µM, the TGI [17] was over 100 µM and the TGI [18] was over 100 µM. The TGI [19] was over 100 µM, the TGI [20] was over 100 µM and the TGI [21] was over 100 µM. It also gave a TGI [22] of over 100 µM, a TGI [23] of over 100 µM and a TGI [24] of over 100 µM. For the same compound, the TGI [25] was over 100 µM, the TGI [26] was over 100 µM and the TGI [27] was over 100 µM. The TGI [28] was over 100 µM, the TGI [29] was over 100 µM and the TGI [30] was over 100 µM. For the same compound, the TGI [31] was over 100 µM, the TGI [32] was over 100 µM and the TGI [33] was over 100 µM. It also gave a TGI [34] of over 100 µM, a TGI [35] of over 100 µM and a TGI [36] of over 100 µM. For the same compound, the TGI [37] was over 100 µM, the TGI [38] was over 100 µM and the TGI [39] was over 100 µM. The TGI [40] was over 100 µM, the TGI [41] was over 100 µM and the TGI [42] was over 100 µM. For the same compound, the TGI [43] was over 100 µM, the TGI [44] was over 100 µM and the TGI [45] was over 100 µM. It also gave a TGI [46] of over 100 µM, a TGI [47] of over 100 µM and a TGI [48] of over 100 µM. The TGI [49] was over 100 µM, the TGI [50] was over 100 µM and the TGI [51] was over 100 µM. For the same compound, the TGI [52] was over 100 µM, the TGI [53] was over 100 µM and the TGI [54] was over 100 µM. For the same compound, the TGI [55] was over 100 µM, the TGI [56] was over 100 µM and the TGI [57] was over 100 µM.

Compound `C[C@]12CC[C@@H]3c4ccc(O)cc4CC[C@H]3[C@@H]1CC[C@@H]2OC(=O)CCC1CCCC1` has a TGI [1] of 29.9 µM, a TGI [2] of 38.8 µM and a TGI [3] of 32.2 µM. The TGI [4] was 55.5 µM, the TGI [58] was 32.7 µM and the TGI [5] was 33.2 µM. It also gave a TGI [6] of 38.4 µM, a TGI [7] of 33.9 µM and a TGI [8] of 98.6 µM. It also gave a TGI [9] of 85.9 µM, a TGI [10] of 27.7 µM and a TGI [59] of 26.9 µM. The TGI [11] was 21 µM, the TGI [12] was 37.8 µM and the TGI [13] was 31.1 µM. The TGI [14] was 33.8 µM, the TGI [15] was 34.8 µM and the TGI [16] was 59.6 µM. It also gave a TGI [17] of 33.9 µM, a TGI [60] of 47.7 µM and a TGI [18] of 32 µM. It also gave a TGI [19] of 33.4 µM, a TGI [20] of 35.2 µM and a TGI [21] of over 56.8 µM. For the same compound, the TGI [22] was 33.1 µM, the TGI [23] was 35.6 µM and the TGI [24] was 32.1 µM. It also gave a TGI [25] of 43.4 µM, a TGI [26] of 67.9 µM and a TGI [27] of 55.3 µM. The TGI [61] was 31 µM, the TGI [62] was 32.2 µM and the TGI [63] was 21.7 µM. For the same compound, the TGI [64] was 20.2 µM, the TGI [28] was 35.2 µM and the TGI [29] was 36.6 µM. It also gave a TGI [30] of 34.6 µM, a TGI [31] of 36.3 µM and a TGI [32] of 32.6 µM. For the same compound, the TGI [65] was 32.9 µM, the TGI [33] was 30.1 µM and the TGI [34] was 32 µM. The TGI [35] was over 57.2 µM, the TGI [36] was 31.7 µM and the TGI [66] was 31.3 µM. For the same compound, the TGI [37] was 38.3 µM, the TGI [38] was 28.3 µM and the TGI [39] was 41.1 µM. The TGI [40] was 31.8 µM, the TGI [41] was 40.5 µM and the TGI [42] was over 56.4 µM. The TGI [43] was 34.2 µM, the TGI [44] was 33.4 µM and the TGI [45] was 38.3 µM. It also gave a TGI [46] of 31.2 µM, a TGI [47] of 31.3 µM and a TGI [49] of over 100 µM. It also gave a TGI [50] of 39.3 µM, a TGI [51] of 38.1 µM and a TGI [67] of 28.4 µM. It also gave a TGI [52] of 48.4 µM, a TGI [53] of 33.5 µM and a TGI [54] of over 57.7 µM. The TGI [55] was 27.5 µM, the TGI [56] was 35.3 µM and the TGI [57] was 40.9 µM.
